# Source: patent US11925450B2, “Methods and apparatus for guiding medical care based on detected gastric function” (Gravitas Medical, Inc., priority 2011, dated 2024)
# Like-named read-outs stand apart in the source and are kept apart here.
# Key:
# [1] = cited from earlier work; for Volume of HCl neutralized by 30 ml: 30 ml (sodium citrate 0.3M)
# gastric juice pH [2] = details: cited from earlier work
# gastric juice pH [3] = details: 30 ml of 0.3 M, pretreatment in elective cesarean section patients; cited from earlier work
# [4] = cited from earlier work
# [5] = in vivo; cited from earlier work
# [6] = approximately 5 ml of 8.4% solution
# Method: In particular, 5 mls of this 8.4% solution can be administered into a patient's stomach at least 15 minutes prior to baseline measurement of gastric juice pH and administration of stimulant, such as pentagastrin.
structure (smiles),measurement,setting,value
"O=C([O-])CC(O)(CC(=O)[O-])C(=O)[O-].[Na+].[Na+].[Na+] [Sodium Citrate, sodium citrate]",Volume of HCl neutralized by 30 ml,[1]; HCl pH 0.8,140 mL
same,Volume of HCl neutralized by 30 ml,[1]; HCl pH 1 (1.0),255 mL
same,Volume of HCl neutralized by 30 ml,"[1]; HCl pH 1 (1.0), listed as sodium citrate",up to 255 ml
same,Volume of HCl neutralized by 30 ml,[1]; HCl pH 1.5,750 mL
same,pH (value in parentheses after the antacid's name),"[1]; presumably pH of the antacid itself, not explained",Sodium Citrate (8.5)
same,"gastric juice pH, mean after administration","gastric juice pH [2]; 50 ml of 0.3 M into the stomach via nasogastric tube, within two minutes, baseline 1.2±0.1",4.8
same,"gastric juice pH, range after administration","gastric juice pH [2]; 50 ml of 0.3 M via nasogastric tube, within two minutes",6.7-7.0
same,time gastric juice pH maintained above 6,gastric juice pH [2]; 50 ml of 0.3 M,at least 2 hours
same,gastric juice pH maintained after administration,"gastric juice pH [2]; 50 ml of 0.3 M, for at least 2 hours",above 6
same,change in gastric juice pH,gastric juice pH [3],significant increase in gastric juice pH
Cl.Cl.NCCc1ccn[nH]1 [betazole hydrocholoride],side effects,[4]; orally administered,few side effects
NCCc1c[nH]cn1 [histamine],side effects,[4]; large doses,severe hypotension
CSCC[C@H](NC(=O)[C@H](Cc1c[nH]c2ccccc12)NC(=O)CCNC(=O)OC(C)(C)C)C(=O)N[C@@H](CC(=O)O)C(=O)N[C@@H](Cc1ccccc1)C(N)=O [pentagastrin],half-life,[5],approximately 10 minutes
same,safety profile,[4]; in vivo,very good safety profile
same,side effects,[4]; intravenous 0.5 mcg/kg bolus over 30 seconds,abdominal fullness and an urge to defecate
same,side effects,[4]; intravenous administration,"transient mild side effects, e.g., anxiety, palpitations"
O=C([O-])O.[Na+] [sodium bicarbonate],volume of gastric juice (pH 1.0) neutralized,[6],50 ml
